Data as given in patent US4582827A, “Pesticidal diphenylaziridines” (priority 1983, dated 1986).

Legend:
[1] = system: tobacco hornworm larvae (newly ecdysed fifth-instar); test: Topical application to tobacco hornworm larvae; format: in vivo, Manduca sexta; settings: 2000 μg/larvae (1600 ppm)
Description: The test compounds were dissolved either in acetone or hexane and applied to the integument of the test insect with a micro applicator. Newly ecdysed fifth-instar tobacco hornworm larvae weighing between 1-1.5 g were used and toxicity data were obtained in the same way as previously described.

[2] = system: Salmonella typhimurium strains TA 98, TA 100, TA 1535, TA 1537, TA 1538, TA 1978; test: Ames assay (spot test), revertant colonies; format: cell-based
Description: This means that aziridine compounds, 1, 10, or 11, will not cause mutations in DNA arising from potential changes in frame shift and/or base pairing. Compounds 1, 10 and 11 were tested for mutagenic properties using the following experimental procedure.
Potential mutagenic and carcinogenic properties of the compounds were evaluated with standard Ames assay procedures (Ames et al, "Mutation Res.", 31, p. 347, 1975). This assay used strains of Salmonella typhimurium selected for sensitivity and specificity in being reverted from a histidine requirement back to prototrophy by a wide variety of mutagens. Potential changes in frameshift were evaluated using strains TA 98, TA 1537 and TA 1538, while changes in base pairing were detected using strains TA 100 and TA 1535. In addition, strain TA 1978 was used, in combination with TA 1538, to evaluate whether the agent killed bacteria by damage to DNA that could be repaired by this strain. Initially, the compounds were screened using the spot test, in which 1000 μgm of material dissolved in 10 μl of DNSO was applied to the middle of the plate.
Dose-response tests were not performed because the results were negative. All the tests were carried out in the presence and absence of an S9 rat liver preparation and contained a positive control (2-acetylaminofluorene,AAF) and a negative control (DMSO).

[3] = system: tobacco hornworm (Manduca sexta) larvae; test: Tobacco hornworm growth and developmental responses to feeding on diets containing the compounds; format: in vivo
H. virescens = test: Incorporation into H. virescens diet; format: in vivo, Heliothis virescens; settings: as much as 20 mM in diet
Description: Compounds 1, 10, 11, 13 and 14 were incorporated into H. virescens diet in the same manner as M. Sexta. Diets containing as much as 20 mM of each compound had little effect on larval development time, pupal weight or time to adult emergence.

[4] = Acute oral toxicity test using the rat; settings: in vivo
From the text: In these studies, it has been determined that the 1,2-diphenylaziridines of this invention have low mammalian toxicity.
Immediate effects, resulting from insecticide toxicity, are usually related to the principal toxic action of the compound.

Clc1ccc(N2CC2c2ccccc2Cl)cc1Cl (stereo not drawn) [Compound 10, 1-(3-4-dichlorophenyl)-2-(2-chlorophenyl)aziridine]
topical effect [1]: ineffective | Mean number of revertant colonies per plate, TA 98 +S9 ([2]; strain TA 98, +S9): 45.3 colonies per plate | Mean number of revertant colonies per plate, TA 98 -S9 ([2]; strain TA 98, -S9): 26.7 colonies per plate | Mean number of revertant colonies per plate, TA 100 +S9 ([2]; strain TA 100, +S9): 56.0 colonies per plate | Mean number of revertant colonies per plate, TA 100 -S9 ([2]; strain TA 100, -S9): 26.3 colonies per plate | Mean number of revertant colonies per plate, TA 1535 +S9 ([2]; strain TA 1535, +S9): 20.3 colonies per plate | Mean number of revertant colonies per plate, TA 1535 -S9 ([2]; strain TA 1535, -S9): 25.0 colonies per plate | Mean number of revertant colonies per plate, TA 1537 +S9 ([2]; strain TA 1537, +S9): 13.7 colonies per plate | Mean number of revertant colonies per plate, TA 1537 -S9 ([2]; strain TA 1537, -S9): 9.0 colonies per plate | Mean number of revertant colonies per plate, TA 1538 +S9 ([2]; strain TA 1538, +S9): 35.7 colonies per plate | Mean number of revertant colonies per plate, TA 1538 -S9 ([2]; strain TA 1538, -S9): 12.0 colonies per plate | Mean number of revertant colonies per plate, TA 1978 +S9 ([2]; strain TA 1978, +S9): 202.0 colonies per plate | Mean number of revertant colonies per plate, TA 1978 -S9 ([2]; strain TA 1978, -S9): 196.0 colonies per plate | mutagenicity ([2]; with and without S9 / mammalian liver enzymes): not mutagenic | % Adult Emergence ([3]; 5 mM in diet): 7% | % Malformed Adults ([3]; 5 mM in diet): 100% | % Pupation ([3]; 5 mM in diet): 80% | Days to Max Wt ([3]; 5 mM in diet): 7.5 ± .3 days | Max Larval Wt ([3]; 5 mM in diet): 5.69 ± .27 g | Mean No. of Eggs ([3]; 5 mM in diet): 55 ± 0 | No. of female Adults ([3]; 5 mM in diet): 1 | feeding time required to attain reduced maximum weight ([3]; 5 mM in diet): extended the feeding time | pupal mortality ([3]; 5 mM in diet): significant pupal mortality | reduction in the maximum weight of hornworm larvae ([3]; 5 mM in diet): 30-50% | wrinkled or crumpled wings of moths ([3]; 5 mM in diet): observed in significant numbers of moths | Total No. of Adults ([3]; 5 mM in diet, all tests began with 15 larvae): 1 | oral activity ([3]; diet, Example 2): good oral activity | pupal mortality ([3]; summary of Tables I and II): caused pupal mortality | effect on larval development time, pupal weight or time to adult emergence (H. virescens): little effect | LD50 [4]: > 2000 mg/kg
